{
  "source": "patent US20080027129A1",
  "about": "(L'OREAL, priority 2006, published 2008)",
  "key": {"GSH": {"test_system": "GSH", "details": "described in the literature; cited from earlier work"}, "[1]": {"test_system": "normal human melanocytes (NHM)", "assay": "reactive oxygen species (ROS) generated by an H2O2 stress in cultured normal human melanocytes", "type": "cell-based", "details": "NHM pretreated 12 h/18 h with compound, H2DCFDA 10 μM, H2O2 250 μM, read after 15 minutes; FIG. 1", "quoted_text": "Protocol for measuring the reactive oxygen species (ROS) generated by an H2O2 stress in cultured normal human melanocytes (NHM)\nThe normal human melanocytes (NHMs) were inoculated at D0 at the density of 4×10^4 cells/cm^2. […] After 20 minutes, the H2DCFDA solution was replaced with the culture medium. The NHMs were left for 30 minutes before adding the H2O2 solution (250 μM). The fluorescence was measured after 15 minutes in a fluoroscan (excitation: 485 nm, emission: 538 nm).\nThe compounds studied were used depending on their properties (concentration, preincubation time). N-Acetylcysteine (A9165-Sigma) was used as a reference molecule. The melanocytes were pretreated, 12 h/18 h at 37° C., with the compound studied in the culture medium, before being brought into contact for 20 minutes with H2DCFDA (10 μM in PBS). The H2DCFDA solution was then replaced with the culture medium containing the active agent studied. After incubating for 30 minutes the oxidative stress was induced by addition of 250 μM of H2O2 in the culture medium. The fluorescence was measured after 15 minutes in a fluoroscan (excitation: 485 nm, emission: 538 nm).\nThe results represent the crude fluorescence data, from which the auto-fluorescence values of “blank” cells, expressed in fluorescence units (fu), obtained during a representative experiment, have been deducted, see FIG. 1."}, "[2]": {"test_system": "normal human melanocytes (NHMs)", "assay": "viability of cultured normal human melanocytes after a dopamine stress (Alamar Blue)", "type": "cell-based", "design": "cell viability after dopamine stress: scale not given here", "details": "for viability at 200 µM: Homo sapiens, Melanocyte, compound 200 μM, read-out: cell viability after dopamine stress; for viability at 200 µM / cell viability after dopamine stress: D3, Alamar Blue", "experimental": "1-C-1. Effect of 3H-1,2-dithiole-3-thione (D3T) on the Viability of Cultured Normal Human Melanocytes (NHMs) After a Dopamine Stress:\nThe normal human melanocytes (NHMs) were inoculated at DO at the density of 1×10^4 cells/cm^2. After adhesion of the cells (3 h), the active agent studied was added to the culture medium. After 2 hours, the dopamine was added to the culture medium to begin the stress. At D3, the cell viability was measured using Alamar Blue (UP669413 UPTIMA, Interchim) according to the instructions of the supplier."}},
  "note": "Read-outs that look alike come from different tables or passages of the source.",
  "data": [
    {"molecule": "S=c1ccss1", "note": "[D3T, 3H-1,2-dithiole-3-thione]", "values": [
      {"measurement": "level of GSH", "setting": "GSH", "value": "increasing the level of GSH"},
      {"measurement": "reactive oxygen species (ROS) induced by H2O2, fluorescence", "setting": "[1]", "value": "decrease of the reactive oxygen species"}
    ]},
    {"molecule": "CC(=O)N[C@@H](CS)C(=O)O", "note": "[NAC, N-Acetylcysteine, reference compound]", "values": [
      {"measurement": "viability at 200 µM", "setting": "[2]; dopamine 0.00 μM", "value": 100, "unit": "%"},
      {"measurement": "viability at 200 µM", "setting": "[2]; dopamine 20.00 μM", "value": 102, "unit": "%"},
      {"measurement": "viability at 200 µM", "setting": "[2]; dopamine 40.00 μM", "value": 102, "unit": "%"},
      {"measurement": "viability at 200 µM", "setting": "[2]; dopamine 60.00 μM", "value": 99.7, "unit": "%"},
      {"measurement": "viability at 200 µM", "setting": "[2]; dopamine 70.00 μM", "value": 95.7, "unit": "%"},
      {"measurement": "viability at 200 µM", "setting": "[2]; dopamine 80.00 μM", "value": 89.4, "unit": "%"},
      {"measurement": "viability at 200 µM", "setting": "[2]; dopamine 90.00 μM", "value": 77.7, "unit": "%"},
      {"measurement": "viability at 200 µM", "setting": "[2]; dopamine 100.00 μM", "value": 23.8, "unit": "%"}
    ]},
    {"molecule": "C=CCN=C=S", "note": "[allyl isothiocyanate]", "values": [
      {"measurement": "level of GSH", "setting": "GSH", "value": "increasing the level of GSH"}
    ]},
    {"molecule": "S=C=NCCc1ccccc1", "note": "[phenethyl isothiocyanate]", "values": [
      {"measurement": "level of GSH", "setting": "GSH", "value": "increasing the level of GSH"}
    ]},
    {"molecule": "C[S@@+]([O-])CCCCN=C=S", "note": "[sulforaphane]", "values": [
      {"measurement": "level of GSH", "setting": "GSH", "value": "increasing the level of GSH"}
    ]},
    {"molecule": "anethole dithiolethione [ADT]", "values": [
      {"measurement": "survival of the cells under dopamine stress compared with the reference compound", "setting": "[2]; FIG. 3, versus N-acetylcysteine", "value": "increases the survival of the cells with a better efficiency than N-acetylcysteine"},
      {"measurement": "cell viability after dopamine stress", "setting": "[2]; compound 2 μM, dopamine 0.00 μM", "value": 100.00},
      {"measurement": "cell viability after dopamine stress", "setting": "[2]; compound 2 μM, dopamine 20.00 μM", "value": 97.48},
      {"measurement": "cell viability after dopamine stress", "setting": "[2]; compound 2 μM, dopamine 40.00 μM", "value": 100.00},
      {"measurement": "cell viability after dopamine stress", "setting": "[2]; compound 2 μM, dopamine 60.00 μM", "value": 98.74},
      {"measurement": "cell viability after dopamine stress", "setting": "[2]; compound 2 μM, dopamine 70.00 μM", "value": 95.90},
      {"measurement": "cell viability after dopamine stress", "setting": "[2]; compound 2 μM, dopamine 80.00 μM", "value": 92.43},
      {"measurement": "cell viability after dopamine stress", "setting": "[2]; compound 2 μM, dopamine 90.00 μM", "value": 82.02},
      {"measurement": "cell viability after dopamine stress", "setting": "[2]; compound 2 μM, dopamine 100.00 μM", "value": 51.42},
      {"measurement": "cell viability after dopamine stress", "setting": "[2]; compound 15 μM, dopamine 0.00 μM", "value": 100.00},
      {"measurement": "cell viability after dopamine stress", "setting": "[2]; compound 15 μM, dopamine 20.00 μM", "value": 92.68},
      {"measurement": "cell viability after dopamine stress", "setting": "[2]; compound 15 μM, dopamine 40.00 μM", "value": 95.22},
      {"measurement": "cell viability after dopamine stress", "setting": "[2]; compound 15 μM, dopamine 60.00 μM", "value": 95.54},
      {"measurement": "cell viability after dopamine stress", "setting": "[2]; compound 15 μM, dopamine 70.00 μM", "value": 94.90},
      {"measurement": "cell viability after dopamine stress", "setting": "[2]; compound 15 μM, dopamine 80.00 μM", "value": 94.90},
      {"measurement": "cell viability after dopamine stress", "setting": "[2]; compound 15 μM, dopamine 90.00 μM", "value": 87.58},
      {"measurement": "cell viability after dopamine stress", "setting": "[2]; compound 15 μM, dopamine 100.00 μM", "value": 81.21},
      {"measurement": "level of GSH", "setting": "GSH", "value": "increasing the level of GSH"},
      {"measurement": "reactive oxygen species (ROS) induced by H2O2, fluorescence", "setting": "[1]", "value": "decrease of the reactive oxygen species"}
    ]}
  ]
}
